Values of other authors in patent EP3933036B1, “PROCESS FOR 7-BETA-HYDROXYLATION OF BILE ACID DERIVATIVES” (MICROMUN Institut für Mikrobiologische Forschung GmbH, priority 2020, dated 2022).

Settings: at 298 K

For `C[S+](C)[O-]` [DMSO], the “octanol/water partition coefficient (KOW)” value is given as 2.

For `CC#N` [acetonitrile], the “octanol/water partition coefficient (KOW)” value is listed as 2.

In the case of `CCOC(C)=O` [ethyl acetate], the “octanol/water partition coefficient (KOW)” value is listed as 11.
